In US12577231B2, “Androgen receptor PROTACS” (GlaxoSmithKline Intellectual Property Development Limited, priority 2023, dated 2026):

Target: T1, Androgen receptor W742L (Homo sapiens, UniProt P10275, W742L)
T1 construct: expressed in transfected cells; host or cells: A549, transduced, puromycin selected
T1 sequence (P10275 1-920 W742L): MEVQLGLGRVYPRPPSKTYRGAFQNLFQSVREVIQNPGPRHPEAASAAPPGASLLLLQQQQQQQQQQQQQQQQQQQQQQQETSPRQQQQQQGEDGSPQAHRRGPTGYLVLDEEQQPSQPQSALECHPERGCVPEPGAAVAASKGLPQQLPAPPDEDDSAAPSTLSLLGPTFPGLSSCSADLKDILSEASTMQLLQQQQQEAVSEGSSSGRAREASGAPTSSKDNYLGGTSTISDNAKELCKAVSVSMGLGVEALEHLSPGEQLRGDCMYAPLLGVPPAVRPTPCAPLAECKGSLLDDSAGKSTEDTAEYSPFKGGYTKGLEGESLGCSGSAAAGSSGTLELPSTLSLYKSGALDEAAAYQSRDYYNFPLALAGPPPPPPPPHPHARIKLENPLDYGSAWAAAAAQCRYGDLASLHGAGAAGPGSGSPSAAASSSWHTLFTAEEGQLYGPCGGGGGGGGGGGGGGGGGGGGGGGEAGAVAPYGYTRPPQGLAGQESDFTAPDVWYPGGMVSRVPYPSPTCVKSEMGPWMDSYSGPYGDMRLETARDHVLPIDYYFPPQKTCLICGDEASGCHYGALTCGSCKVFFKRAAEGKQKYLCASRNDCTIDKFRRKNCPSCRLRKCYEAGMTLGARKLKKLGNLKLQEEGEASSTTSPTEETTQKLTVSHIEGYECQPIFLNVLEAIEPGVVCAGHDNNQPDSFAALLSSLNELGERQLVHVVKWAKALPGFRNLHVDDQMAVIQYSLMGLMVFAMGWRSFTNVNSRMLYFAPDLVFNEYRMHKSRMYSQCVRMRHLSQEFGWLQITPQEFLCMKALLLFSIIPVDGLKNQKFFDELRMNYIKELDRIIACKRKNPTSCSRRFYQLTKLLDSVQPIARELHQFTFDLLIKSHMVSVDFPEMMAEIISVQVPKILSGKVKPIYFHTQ
Assay: Degradation of overexpressed Androgen Receptor in A549 cells (HiBiT), W742L
Format: cell-based
Details: A549 cells overexpressing AR W742L, cycloheximide, 24 hours
Protocol: A549 cells were transduced to express wild type androgen receptor and Androgen receptor containing the following mutations (L702H, H875Y W742C W742L F877L, T878A and T878A/H875Y) with HiBiT tags. Transduced cells following puromycin selection were maintained in a humidified incubator (at 37° C. and 5% CO2 in the DMEM medium supplemented with 1% (v/v) Pen/Strep, 1% (v/v) Glutamax and 10% (v/v) FBS. A549 cells expressing each AR construct were detached from plate and counted. Cell suspensions at density 0.2 million per mL were prepared. Cell suspension was supplemented with 100 μg/mL of cycloheximide to block protein synthesis. Cells were preincubated with cycloheximide for 1 hr before seeding. Cells were seeded onto 384-well plate at density of 5,000 in 25 μL per well. A two fold serial dilution of test compounds, starting from 1 μM (row A) in 2-fold serial dilution series across the column using Tecan D300e dispenser. […]
Nano-Glo HiBiT Lytic reagent was prepared by adding LgBiT protein and Nano-Glo® substrate to lytic buffer pre-equilibrated at room temperature following manufacturer protocol (https://www.promega.co.uk/resources/protocols/technical-manuals/101/nanoglo-luciferase-assay-system-protocol). […] The plates were then centrifuged (100×G, 1 min) and incubated on shaker for 10 mins before taking readings on Pherastar Luminescence microplate reader. […]

- Summary pXC50: 8.93
SMILES: COc1cc(O[C@H]2C(C)(C)[C@H](NC(=O)c3ccc(N4CCC(CN5CCC(n6ncc7c(N8CCC(=O)NC8=O)nccc76)CC5)CC4)c(F)c3)C2(C)C)ccc1C#N [Example 20, N-((1r,3r)-3-(4-Cyano-3-methoxyphenoxy)-2,2,4,4-tetramethylcyclobutyl)-4-(4-((4-(4-(2,4-dioxotetrahydropyrimidin-1(2H)-yl)-1H-pyrazolo[4,3-c]pyridin-1-yl)piperidin-1-yl)methyl)piperidin-1-yl)-3-fluorobenzamide]
